Experimental data reported in patent US8394763B2, “Cyclic undecapeptides and derivatives as multiple sclerosis therapies” (Oregon Health & Science University, priority 2007, dated 2013).

Assays:
EAE in B6 mice [1] = test: Repair of injured axons: NF-P immunostaining at day 40, treatment from day 15; assay type: in vivo
Source text: B6 mice were immunized with MOG 35-55 peptide as described in Example 2. […] The two treatment groups were perfused on day 40 post-immunization and sections of their spinal cords were immunostained for NF-P.

EAE in B6 mice [2] = test: Reversal of paralysis in EAE, treatment begun day 15 after onset; assay type: in vivo; conditions: 20 mg/kg daily from day 15
Source text: EAE was induced in B6 mice as described in Example 2. Mice developed signs of EAE 10-12 days following immunization with MOG 35-55 peptide. […] Mice were scored daily for EAE, blinded to treatment status.

Mice with induced EAE [3] = test: Phosphorylated neurofilament (NF-P) immunostaining of spinal cord of EAE mice, dose groups; assay type: in vivo; conditions: vehicle 24%
Description: Mice with induced EAE were perfused with 4% paraformaldehyde and 1- to 2-mm lengths of spinal cord were processed for sectioning as described in Masliah et al. Spinal cord sections were blocked and stained with anti-phosphorylated NF, SMI312 (Sternberger Monoclonals, Lutherville, Md.). Following incubation in goat anti-mouse secondary antibody and incubation in mouse peroxidase-antiperoxidase, immunoreactivity was visualized with 0.05% diaminobenzidine tetrahydrochloride/0.01% hydrogen peroxide, examined by light microscopy and photographed and analyzed as described for assessing white matter tissue damage. Statistical significance was determined by using one-way ANOVA followed by Newman-Keuls multiple comparisons tests (WINKS 4.62 professional edition; Texasoft, Dallas, Tex.); significance was defined as p<0.05.

lymph node cells = test: Proliferation of lymph node cells to MOG 35-55 peptide, [3H]thymidine incorporation; assay type: cell-based, C57BL/6 (B6) mice; conditions: 25 μg/ml MOG 35-55 peptide; equimolar concentrations of both compounds; vs MOG 35-55 peptide alone
EAE in C57BL/6 mice = test: CD4 and CD11b immunostaining of spinal cord of EAE mice; assay type: in vivo; conditions: 20 mg/kg/day s.c. from day 15, day 34 to 40
Source text: EAE was induced in C57BL/6 mice by immunization with […] as described in Example 2. […] Mice received therapy by daily subcutaneous injection. Mice were euthanized at day 34 to 40 post-immunization by perfusion with 4% paraformaldehyde and spinal cords were removed for immunohistochemical staining and quantitative analysis. Spinal cord sections were stained with anti-CD4 (lymphocyte) or anti-CD11b (monocyte/macrophage lineage) antibodies and quantified following image capture on a laser scanning confocal microscope.

[4] = test system: Splenocytes or lymphocytes; test: Proliferation of splenocytes or lymphocytes from treated immunized mice in response to MOG 35-55 peptide; assay type: in vivo, B6 mice; conditions: mice treated with 20 mg/kg/day, compared with vehicle
Mice with induced EAE [5] = test: White matter tissue damage in thoracic spinal cord of EAE mice (toluidine blue); assay type: in vivo; conditions: vs vehicle
Description: Mice with induced EAE were deeply anesthetized with isoflurane, heparinized, and perfused with 5% gluteraldehyde, and spinal cords were dissected as described in Masliah et al., Am. J. Pathol. 142:871-882, 1993. Tissue samples were post-fixed with 1% osmium. Semithin sections (0.5 μm) were stained with toluidine blue and photographed at 25× magnification. The percentage of the spinal cord showing damage was determined in the ventrolateral and dorsal thoracic cord. Photomontages (final magnification 100×) of the entire spinal cord and areas containing damaged fibers were measured using a SummaSketch 111 (Summagraphics, Fairfield, Conn.) digitizing tablet and BIOQUANT Classic 95 software (R & M Biometrics, Nashville, Tenn.). Measurements were taken of the total area (damaged and nondamaged) and the cumulative percentage area of lesions was calculated.

[6] = test system: EAE in C57BL/6 (B6) female mice; test: Clinical course of EAE, treatment begun prior to disease onset (day 10); assay type: in vivo, C57BL/6 (B6) mice; conditions: for mean total EAE score: vehicle control 99
Description: EAE was induced in C57BL/6 (B6) female mice by immunization with 200 μg of MOG 35-55 peptide in complete Freund's adjuvant containing 400 μg of Mycobacterium tuberculosis per mouse by subcutaneous injection. Pertussis toxin was administered intraperitoneally at day 0 (25 ng per mouse) and day 2 (66 ng per mouse) after immunization. […] Mice were examined for signs of EAE daily, blinded to treatment status. EAE was scored by using a 9 point scale (0, no paralysis; 1, limp tail with minimal hind limb weakness; 2, mild hind limb weakness; 3, moderate hind limb weakness; 4, moderately severe hind limb weakness; 5, severe hind limb weakness; 6, complete hind limb paralysis; 7, hind limb paralysis with mild forelimb weakness; 8, hind limb paralysis with moderate forelimb weakness; and 9, hind limb paralysis with severe forelimb weakness).

CypA = CypA (Homo sapiens, UniProt P62937); conditions: see U.S. Pat. No. 6,927,208 and WO 2006/038088; cited from earlier work
[7] = 20 mg/kg, vs vehicle treated mice

CypA, sequence (P62937 whole entry, species assumed): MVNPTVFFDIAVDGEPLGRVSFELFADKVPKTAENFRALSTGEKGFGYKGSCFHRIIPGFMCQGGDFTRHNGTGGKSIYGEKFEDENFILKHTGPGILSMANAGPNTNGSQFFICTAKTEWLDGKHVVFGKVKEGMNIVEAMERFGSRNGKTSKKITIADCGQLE

## Cyclo[L-alanyl-D-alanyl-N-methyl-L-leucyl-N-methyl-L-leucyl-N-methyl-L-valyl-(2S,3R,4R,6E)-3-hydroxy-4-methyl-2-methylamino-6-octenoyl-(2S)-2-aminobutanoyl-N-methyl-D-alanyl-N-ethyl-L-valyl-L-valyl-N-methyl-L-leucyl] [[D-MeAla]^3-[EtVal]^4-CsA]
EAE in B6 mice [1]; 20 mg/kg daily from day 15, read at day 40, day 15 untreated 9%, vehicle 4.7%
  reduced NF-P staining, share of dorsal spinal cord: 1.7%
EAE in B6 mice [1]; 20 mg/kg daily from day 15, read at day 40, day 15 untreated 14%, vehicle 20%
  reduced NF-P staining, share of ventrolateral spinal cord: 7%
EAE in B6 mice [1]; 20 mg/kg daily, day 40 vs day 15
  improvement in expression of NF-P within axons: ≥ 50%
EAE in B6 mice [2]
  clinical course of paralysis: progressive improvement, eventually returning to nearly normal
EAE in B6 mice [2]; vehicle 116, p=0.0006
  mean total EAE score: 75
Mice with induced EAE [3]; 1 mg/kg
  mean area of loss of NF-P staining, lateral/ventral thoracic spinal cord: 14.5%
Mice with induced EAE [3]; 5 mg/kg
  mean area of loss of NF-P staining, lateral/ventral thoracic spinal cord: 3%
Mice with induced EAE [3]; 20 mg/kg
  mean area of loss of NF-P staining, lateral/ventral thoracic spinal cord: 1.5%
Lymph node cells
  proliferative capacity of lymph node cells, MOG 35-55 peptide stimulated: did not significantly alter
EAE in C57BL/6 mice; no treatment 0.86%, vehicle 0.74%, not significant
  percentage area stained by anti-CD4, spinal cord: 0.61%
EAE in C57BL/6 mice; no treatment 6.64%, vehicle 5.83%, p=0.05 vs vehicle
  CD11b cells, percentage of white matter: 3.94%
[4]
  proliferation of splenocytes or lymphocytes in response to MOG 35-55 peptide: no differences in proliferation
Mice with induced EAE [5]; 1 mg/kg/day
  reduction of tissue damage, dorsal thoracic cord: 50%
  reduction of tissue damage, ventrolateral thoracic cord: 40%
Mice with induced EAE [5]; 5 mg/kg/day
  reduction of tissue damage, dorsal thoracic cord: 69%
  reduction of tissue damage, ventrolateral thoracic cord: 76%
Mice with induced EAE [5]; 20 mg/kg/day
  reduction of tissue damage, dorsal thoracic cord: 81%
  reduction of tissue damage, ventrolateral thoracic cord: 86%
[6]; 1 mg/kg/day from day 10
  mean total EAE score: 53
[6]; 5 mg/kg/day from day 10
  mean total EAE score: 25
[6]; [7]
  onset of disease: significantly delayed
  severity of peak disease: reduced
[6]; 20 mg/kg/day from day 10
  mean total EAE score: 12
[6]; all doses (1, 5, 20 mg/kg), in contrast to vehicle
  recovery over the course of the experiment: completely recovered

## [EtPhe(4-CH2PO(OMe)2)]^4-CsA
CypA
  apparent Ki for CypA activity compared with CsA: less than the Ki of CsA
